The text below walks through data of patent US8802634B2, “CD40-L Inhibitory Peptides” (Phylogica Limited, priority 2008, dated 2014).

“Also recorded” adds a separate entry of the source. Where a SMILES comes first, the peptide text is derived from it. Bridges are numbered along the chain shown (N, C = ends). Roman numbers before positions name the chains, in order. Where no end group is shown, it is not given here. [ ]: non-standard residue; d: D form. AEEA = NCCOCCOCC(=O)O

In one test the target is T1, CD40L/CD40-Fc (Homo sapiens, UniProt P29965).
T1 sequence (P29965 113-261 limits assumed): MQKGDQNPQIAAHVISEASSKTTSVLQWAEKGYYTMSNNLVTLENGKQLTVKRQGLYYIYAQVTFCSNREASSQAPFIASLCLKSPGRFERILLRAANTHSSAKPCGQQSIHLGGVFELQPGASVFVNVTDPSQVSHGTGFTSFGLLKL
Kind of test: Chemiluminescent proximity assay (Alphascreen) of CD40L-CD40 interaction. The settings on record: for EC50: monomeric and dimeric peptides, Table 5, read-out: EC50; for inhibition of CD40L-CD40 interaction relative to monomeric peptide controls: qualitative. In kind it is binding. As for the experimental part: In one example, the Alphascreen assay (PerkinElmer) was employed according to the manufacturer's instructions.
Homodimers and heterodimers were also assayed by chemiluminescent proximity assay for their ability to inhibit CD40L-CD40 interaction.
For orientation: Alpha assays give light when donor and acceptor beads are brought close together.

A further test has as its system TNFα. Kind of test: TNFα-induced cytotoxicity (control). It is filed as cell-based. The settings on record: specificity control. On the procedure:
(§1) In these assays, CD40L induced CD86 expression in a concentration-dependent manner in the absence of a peptidyl inhibitor of the present invention with an EC50 value of about 9 nM (FIG. 6d, 6e). As a control in these assays, LPS-induced expression of CD86 mediated by the Toll-like receptors TLR 2/4, and TNFα-induced cytoxicity, were also assayed to exclude effects mediated by ligands other than CD40L.

Test [1] deals with CD40L-induced CD86 expression on primary B-cells (Homo sapiens, UniProt P29965). The experiment in a line: Inhibition of CD40L-induced CD86 expression on primary B-cells (FACS). It is filed as cell-based. The note with it: for EC50: monomeric and dimeric peptides, Table 7, read-out: EC50; for inhibition of CD40L-induced CD86 expression (qualitative): figure legends. On the procedure: In one example, the ability of a peptide, analog or derivative of the invention to inhibit or reduce or delay expression of CD86 on primary B-cells was determined in the presence and absence of the peptides, analogs and derivatives of the invention. In particular, CD86 expression was determined by FACS.
as §1
In a similar series of bioassays, dimeric forms of the CD40L peptide inhibitors were also tested for their ability to inhibit or reduce CD40L-induced expression of CD86 on primary B-cells.

The subject of test [2] is T cells from transgenic D011.10 mice. The experiment in a line: Antigen-specific T-cell proliferation assay. It is filed as cell-based. The settings on record: 10 μM or 20 μM peptide. On the procedure: Briefly, pooled DLN (consisting parathymic and posterior mediastinal nodes) were collected from transgenic D011.10 mice engineered to express ovalbumin-specific T cell receptors (TCRs). Enriched T-cell suspensions were prepared and stimulated with 10 μg/ml ovalbumin in the presence or absence of 10 μM or 20 μM concentration of anti-CD40L peptidyl inhibitors. The peptides tested were PEGylated serine derivatives and/or chiral analogs of peptides CD40L M1—6, CD40L M1—9, CD40L M1—18, CD40L M1—30, CD40L M1—42, CD40L M1—50, CD40L M7—82 and CD40L M7—206. Cells were cultured for 24-72 hrs and then pulsed with [^3H]thymidine for another 24 hr to measure T-cell proliferation.

For another test, the target named is T2, CD40L (Homo sapiens, UniProt P29965).
T2 construct: measures of the “on” and “off” rates of the peptides relative to soluble CD40L
T2 sequence (P29965 113-261 limits assumed): T1 sequence (P29965 113-261 limits assumed)
The experiment in a line: Octet Red label-free association/dissociation analysis. The note with it: versus CD40L M1—206. In kind it is binding. As for the experimental part:
Label-free analyses of the associations and dissociations of base peptides and serine derivatives of base peptides with the CD40L target protein were performed using the Octet Red system (ForteBio, Inc., USA) according to the manufacturer's instructions. These analyses provide kinetic constants of CD40L binding activity, especially the association rate constant (Ka) and dissociation rate constant (Kd) of binding, i.e., measures of the “on” and “off” rates of the peptides relative to soluble CD40L.
Background: In BLI a coated tip is dipped into the sample, and binding shifts an interference pattern.

Sequence of CD40L-induced CD86 expression on primary B-cells (P29965 whole entry): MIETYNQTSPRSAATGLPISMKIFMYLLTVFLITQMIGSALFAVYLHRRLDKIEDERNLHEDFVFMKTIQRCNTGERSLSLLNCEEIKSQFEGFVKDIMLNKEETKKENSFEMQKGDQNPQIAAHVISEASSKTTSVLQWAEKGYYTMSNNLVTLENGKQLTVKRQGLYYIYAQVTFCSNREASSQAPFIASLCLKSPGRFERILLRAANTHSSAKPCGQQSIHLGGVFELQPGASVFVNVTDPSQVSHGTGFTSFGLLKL
Sequence of CD40L-induced CD86 expression on primary B-cells (P25942 21-277 partner): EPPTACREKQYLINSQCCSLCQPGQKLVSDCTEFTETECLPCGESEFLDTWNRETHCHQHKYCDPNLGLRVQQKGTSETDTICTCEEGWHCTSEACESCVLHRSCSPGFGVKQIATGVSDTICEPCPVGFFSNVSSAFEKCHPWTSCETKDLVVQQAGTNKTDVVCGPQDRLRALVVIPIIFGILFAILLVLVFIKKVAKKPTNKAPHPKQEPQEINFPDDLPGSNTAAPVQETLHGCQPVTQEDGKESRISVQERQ

What is called EC50 is the concentration at which the effect is half-maximal. On to `CC(C)C[C@H](NC(=O)[C@H](Cc1ccc(O)cc1)NC(=O)[C@H](CC(=O)O)NC(=O)[C@H](CCCNC(=N)N)NC(=O)[C@H](CCCNC(=N)N)NC(=O)[C@H](Cc1ccccc1)NC(=O)[C@H](CO)NC(=O)[C@H](CO)NC(=O)[C@H](Cc1ccc(O)cc1)NC(=O)[C@H](Cc1ccccc1)NC(=O)[C@H](CCCNC(=N)N)NC(=O)[C@H](Cc1ccccc1)NC(=O)[C@H](CC(C)C)NC(=O)[C@H](Cc1ccccc1)NC(=O)[C@H](Cc1ccccc1)NC(=O)[C@H](CC(C)C)NC(=O)[C@H](CC(N)=O)NC(=O)[C@H](Cc1ccc(O)cc1)NC(=O)[C@H](CCCNC(=N)N)NC(=O)[C@@H]1CCCN1C(=O)[C@@H]1CCCN1)C(=O)N[C@@H](Cc1ccc(O)cc1)C(=O)N[C@@H](Cc1ccccc1)C(=O)O` [CD40L M1_9s] (H-PPRYNLFFLFRFYSSFRRDYLYF-OH; N-terminus and C-terminus assumed), for which the EC50 (at CD40L/CD40-Fc; in test [1]) was 564 nM each time. The “inhibition of rTNFα-induced cytoxicity” value with TNFα is reported as “lack of inhibition; also recorded: no significant inhibition”.
In the case of `CC[C@H](C)[C@H](NC(=O)[C@H](CO)NC(=O)[C@H](Cc1c[nH]c2ccccc12)NC(=O)[C@H](CCC(N)=O)NC(=O)[C@@H](NC(=O)[C@@H]1CCCN1C(=O)[C@H](Cc1ccccc1)NC(=O)[C@H](Cc1ccccc1)NC(=O)[C@H](Cc1c[nH]c2ccccc12)NC(=O)CNC(=O)[C@H](Cc1ccc(O)cc1)NC(=O)[C@H](CCCCN)NC(=O)[C@H](CC(C)C)NC(=O)[C@@H](NC(=O)[C@H](Cc1c[nH]cn1)NC(=O)[C@H](CO)NC(=O)[C@H](CCCNC(=N)N)NC(=O)[C@H](Cc1ccc(O)cc1)NC(=O)[C@@H]1CCCN1C(=O)[C@@H](NC(=O)[C@H](Cc1ccccc1)NC(=O)[C@@H]1CCCN1C(=O)[C@@H](N)CC(C)C)C(C)C)C(C)C)C(C)C)C(=O)N[C@@H](Cc1ccccc1)C(=O)N[C@@H](C)C(=O)N[C@H](C(=O)N[C@@H](CC(C)C)C(=O)N1CCC[C@H]1C(=O)N[C@@H](Cc1ccccc1)C(=O)N[C@@H](CCC(N)=O)C(=O)N[C@@H](Cc1ccc(O)cc1)C(=O)N[C@@H](CC(C)C)C(=O)N[C@@H](Cc1c[nH]cn1)C(=O)N[C@@H](CCCNC(=N)N)C(=O)N[C@@H](CO)C(=O)N[C@@H](CCCNC(=N)N)C(=O)O)C(C)C` [CD40L M1_18s] (H-LPFVPYRSHVLKYGWFFPVQWSIFAVLPFQYLHRSR-OH; N-terminus and C-terminus assumed), the “inhibition of rTNFα-induced cytoxicity” value in the test on TNFα (listed as M1—18*S) is on record as “lack of inhibition”; in the test with TNFα (listed as M1—18S) it was “no significant inhibition”.
In the case of `CC[C@H](C)[C@H](NC(=O)[C@H](CO)NC(=O)[C@H](Cc1ccccc1)NC(=O)[C@@H]1CCCN1C(=O)[C@@H]1CCCN1C(=O)[C@H](CO)NC(=O)[C@H](Cc1ccccc1)NC(=O)[C@H](Cc1ccccc1)NC(=O)[C@H](Cc1ccccc1)NC(=O)[C@H](CC(C)C)NC(=O)[C@H](CC(C)C)NC(=O)[C@@H](N)CC(C)C)C(=O)N[C@@H](Cc1ccccc1)C(=O)N[C@@H](CO)C(=O)N[C@@H](Cc1ccccc1)C(=O)N[C@@H](CO)C(=O)N[C@@H](CC(C)C)C(=O)N[C@H](C(=O)N[C@H](C(=O)N[C@@H](CC(C)C)C(=O)N[C@@H](CO)C(=O)O)[C@@H](C)O)[C@@H](C)O` [Peptide M7_189S] (H-LLLFFFSPPFSIFSFSLTTLS-OH), the 50% effective concentration (EC50) on CD40L/CD40-Fc came to 177 nM; in test [1], 176 nM.
As to AQWWHHRFSFLGAIQFFERGAAD [CD40L M1_30rd], the “relative performance in T-cell proliferation assay” value in test [2] is given as “best-performing”.
HPFSIKNVFSIWNFFSVY [CD40L M1_6s]: the “inhibition of rTNFα-induced cytoxicity” value in the test on TNFα is listed as “lack of inhibition; also recorded: no significant inhibition”.
“I: H-C[AEEA]LLLFFFSPPFSIFSFSLTTLS / II: H-C[AEEA]HPFSIKNVFSIWNFFSVY (disulfide I:1-II:1) [Cys_M1_6S-Cys_M1_189S heterodimer]”: on CD40L/CD40-Fc, the “inhibition of CD40L-CD40 interaction relative to monomeric peptide controls” value is reported as “enhanced inhibition”. Further, the “inhibition of CD40L-induced CD86 expression (qualitative)” value in test [1] is “enhanced inhibition”.
For “I: H-C[AEEA]PPRYNLFFLFRFYSSFRRDYLYF / II: H-C[AEEA]HPFSIKNVFSIWNFFSVY (disulfide I:1-II:1) [Cys_M1_6S-Cys_M1_9S heterodimer]”, the “inhibition of CD40L-CD40 interaction relative to monomeric peptide controls” value against CD40L/CD40-Fc was “enhanced inhibition”. For the same compound, the “inhibition of CD40L-induced CD86 expression (qualitative)” value in test [1] is recorded as “enhanced inhibition”.
Consider “PFTWRPTIFWIIQLIVYMRHFGGGGSRSELLRENICRYVSLFDHPLQRNTPLDELRFVIFDTETSGFDLVKDRILSIR [CD40L D1_0014]”, for which the “fold higher affinity for CD40L than base monomeric peptide” value at CD40L is on record as 6 fold.
As for SKVRMQFDIINFPVNVGFLVFSH [CD40L M1_42rd], in test [2], the “relative performance in T-cell proliferation assay” value is given as “best-performing”.
